{"source": "patent US12269012B2", "about": "“Columns and methods of use for analytical standards and compounds” (priority 2018, dated 2025)", "key": {"[1]": {"assay": "Bound and recovery of PAH standards on PS-DVB on-column standards after 15 days of storage", "format": "physicochemical", "settings": "standards 0.1-9 ppm; for Average % Bound: PS-DVB pipette tip columns; for Average % Recovered: after 15 days of storage of on-column standards", "procedure": "Primary stock solutions of PAHs, namely B(a)A, Ch, B(b)F and B(a)P, were prepared by dissolving 1-2 mg of each compound in 10.0 mL methanol separately. From these stock solutions, secondary working standard stock solutions were mixed together to constitute the working standards containing all the standards mixed together. The secondary standard mixtures were prepared to have final concentrations of 0.1-10 ppm. All primary and secondary working solutions were stored at −20° C.\nPS-DVB 160 μL resin bed volume pipette tip columns (50 mg resin, particle size 70-100 μm particle size, 950 m^2/g surface area) from PhyNexus® (San Jose, CA) were activated with 500 μL of 1:1 methanol/water through five times recycling of the activation solution. The loading was achieved through ten times recycling of the 500 μL sample. Washing was carried out once, with 1:1 methanol/water (ten times recycling of 500 μL wash solution). After washing, the sorbent was dried for 1 minute through flushing ambient air in and out of the tip and then air dried and stored for 15 days.\nPS-DVB sorbent retains PAHs due to strong π-π interactions between sorbent and PAHs. The PS/DVB on-column standards were prepared by loading 0.1, 0.3, 0.5, 0.7, 0.9, 1, 3, 5, 7, and 9 ppm standard mixtures. These corresponded to 50, 150, 250, 350, 450, 500, 1500, 2500, 3500, and 4500 ng by weight of each of the four PAH standards contained in the secondary standard mixture."}, "[2]": {"assay": "SPE binding and recovery of flavonoid standards from freshly prepared Oasis HLB cartridges", "format": "physicochemical", "settings": "10, 15, and 20 ppm standard solutions", "procedure": "In addition, on-column standards were prepared from the fresh standards. Unidirectional flow Oasis® HLB, 30 mg sorbent 1 mL cartridges were used as the solid phase extraction column. The appropriate amounts of standard compounds corresponding to 10-30 ppm were adsorbed to SPE sorbent Oasis® HLB cartridges.\nThe SPE columns were activated with 1 mL methanol and equilibrated with 1 mL water. The cartridges loaded with standard compound solutions dried and were stored in vacuum sealed packing.\nThe columns were stored for several days. The columns were washed with 1:1 methanol/water. Elution was performed twice with 500 μL 10% formic acid in methanol. HPLC-UV and ESI-MS were used to quantify the target compounds."}, "[3]": {"format": "physicochemical", "procedure": "All three solutions were combined to a final volume of 10.0 mL using pure methanol. From this stock solution, working standards at net final concentration of 10-30 ppm (each) were prepared by appropriate dilution of the stock solution into 1:1 methanol/water, v/v. All working solutions were stored at −20° C. as well as stored at room temperature (stability was monitored after 4 hours, 1 day, 3 days, 7 days, 10 days and 28 days' storage at room temperature) to monitor the extent of degradation.\nDegradation Kinetics (0-28 Days) for wet storage at room temperature.\nThe stability of flavonoids was compared at wet storage (solution form at room temperature and at −20° C.) and dry storage (room temperature bound to sorbent and dry form in an open Eppendorf vial)."}}, "note": "Like-named read-outs stand apart in the source and are kept apart here.", "data": [{"smiles": "c1ccc2cc3c(ccc4ccccc43)cc2c1", "note": "[Benz(a)anthracene (B(a)A), Benz(a)anthracene]", "values": [{"measurement": "Average % Bound", "setting": "[1]", "value": "95-99%"}, {"measurement": "Average % Recovered", "setting": "[1]", "value": "100-102%"}]}, {"smiles": "c1ccc2c(c1)cc1ccc3cccc4ccc2c1c34", "note": "[Benzo(a)pyrene (B(a)P), Benzo(a)pyrene]", "values": [{"measurement": "Average % Bound", "setting": "[1]", "value": "95-99%"}, {"measurement": "Average % Recovered", "setting": "[1]", "value": "96-100%"}]}, {"smiles": "c1ccc2c(c1)-c1cccc3c1c-2cc1ccccc13", "note": "[Benzo(b)fluoranthene (B(b)F), Benzo(b)fluoranthene]", "values": [{"measurement": "Average % Bound", "setting": "[1]", "value": "95-99%"}, {"measurement": "Average % Recovered", "setting": "[1]", "value": "90-97%"}]}, {"smiles": "c1ccc2c(c1)ccc1c3ccccc3ccc21", "note": "[Chrysene (Ch), Chrysene]", "values": [{"measurement": "Average % Bound", "setting": "[1]", "value": "95-99%"}, {"measurement": "Average % Recovered", "setting": "[1]", "value": "100-102%"}]}, {"smiles": "O=c1c(O)c(-c2ccc(O)cc2)oc2cc(O)cc(O)c12", "note": "[Kaempferol, kaempferol]", "values": [{"measurement": "Bound % (Oasis ® HLB, 30 mg, 1 ml sorbent)", "setting": "[2]", "value": 100, "unit": "%"}]}, {"smiles": "O=c1c(O)c(-c2cc(O)c(O)c(O)c2)oc2cc(O)cc(O)c12", "note": "[Myricetin, myricetin]", "values": [{"measurement": "percent degradation", "setting": "[3]; 0 h, 10 ppm", "value": 0, "unit": "%"}, {"measurement": "percent degradation", "setting": "[3]; 0 h, 15 ppm", "value": 0, "unit": "%"}, {"measurement": "percent degradation", "setting": "[3]; 0 h, 20 ppm", "value": 0, "unit": "%"}, {"measurement": "percent degradation", "setting": "[3]; 0 h, 25 ppm", "value": 0, "unit": "%"}, {"measurement": "percent degradation", "setting": "[3]; 0 h, 30 ppm", "value": 0, "unit": "%"}, {"measurement": "percent degradation", "setting": "[3]; 4 h, 10 ppm", "value": "−0.4796", "unit": "%"}, {"measurement": "percent degradation", "setting": "[3]; 4 h, 15 ppm", "value": "−0.6270", "unit": "%"}, {"measurement": "percent degradation", "setting": "[3]; 4 h, 20 ppm", "value": 1.520, "unit": "%"}, {"measurement": "percent degradation", "setting": "[3]; 4 h, 25 ppm", "value": 0.1736, "unit": "%"}, {"measurement": "percent degradation", "setting": "[3]; 4 h, 30 ppm", "value": 0.4265, "unit": "%"}, {"measurement": "percent degradation", "setting": "[3]; 1 day, 10 ppm", "value": "−0.9592", "unit": "%"}, {"measurement": "percent degradation", "setting": "[3]; 1 day, 15 ppm", "value": 0.3134, "unit": "%"}, {"measurement": "percent degradation", "setting": "[3]; 1 day, 20 ppm", "value": 2.690, "unit": "%"}, {"measurement": "percent degradation", "setting": "[3]; 1 day, 25 ppm", "value": 3.211, "unit": "%"}, {"measurement": "percent degradation", "setting": "[3]; 1 day, 30 ppm", "value": 0.9239, "unit": "%"}, {"measurement": "percent degradation", "setting": "[3]; 3 days, 10 ppm", "value": 4.556, "unit": "%"}, {"measurement": "percent degradation", "setting": "[3]; 3 days, 15 ppm", "value": 5.015, "unit": "%"}, {"measurement": "percent degradation", "setting": "[3]; 3 days, 20 ppm", "value": 6.901, "unit": "%"}, {"measurement": "percent degradation", "setting": "[3]; 3 days, 25 ppm", "value": 5.990, "unit": "%"}, {"measurement": "percent degradation", "setting": "[3]; 3 days, 30 ppm", "value": 3.767, "unit": "%"}, {"measurement": "percent degradation", "setting": "[3]; 7 days, 10 ppm", "value": 11.27, "unit": "%"}, {"measurement": "percent degradation", "setting": "[3]; 7 days, 15 ppm", "value": 9.404, "unit": "%"}, {"measurement": "percent degradation", "setting": "[3]; 7 days, 20 ppm", "value": 12.74, "unit": "%"}, {"measurement": "percent degradation", "setting": "[3]; 7 days, 25 ppm", "value": 10.67, "unit": "%"}, {"measurement": "percent degradation", "setting": "[3]; 7 days, 30 ppm", "value": 8.319, "unit": "%"}, {"measurement": "percent degradation", "setting": "[3]; 10 days, 10 ppm", "value": 12.47, "unit": "%"}, {"measurement": "percent degradation", "setting": "[3]; 10 days, 15 ppm", "value": 10.66, "unit": "%"}, {"measurement": "percent degradation", "setting": "[3]; 10 days, 20 ppm", "value": 12.63, "unit": "%"}, {"measurement": "percent degradation", "setting": "[3]; 10 days, 25 ppm", "value": 9.982, "unit": "%"}, {"measurement": "percent degradation", "setting": "[3]; 10 days, 30 ppm", "value": 7.747, "unit": "%"}, {"measurement": "percent degradation", "setting": "[3]; 28 days, 10 ppm", "value": 30.46, "unit": "%"}, {"measurement": "percent degradation", "setting": "[3]; 28 days, 15 ppm", "value": 31.97, "unit": "%"}, {"measurement": "percent degradation", "setting": "[3]; 28 days, 20 ppm", "value": 22.92, "unit": "%"}, {"measurement": "percent degradation", "setting": "[3]; 28 days, 25 ppm", "value": 19.36, "unit": "%"}, {"measurement": "percent degradation", "setting": "[3]; 28 days, 30 ppm", "value": 17.13, "unit": "%"}, {"measurement": "Bound % (Oasis ® HLB, 30 mg, 1 ml sorbent)", "setting": "[2]", "value": 100, "unit": "%"}]}, {"smiles": "O=c1c(O)c(-c2ccc(O)c(O)c2)oc2cc(O)cc(O)c12", "note": "[Quercetin, quercetin]", "values": [{"measurement": "percent degradation", "setting": "[3]; 0 h, 10 ppm", "value": 0, "unit": "%"}, {"measurement": "percent degradation", "setting": "[3]; 0 h, 15 ppm", "value": 0, "unit": "%"}, {"measurement": "percent degradation", "setting": "[3]; 0 h, 20 ppm", "value": 0, "unit": "%"}, {"measurement": "percent degradation", "setting": "[3]; 0 h, 25 ppm", "value": 0, "unit": "%"}, {"measurement": "percent degradation", "setting": "[3]; 0 h, 30 ppm", "value": 0, "unit": "%"}, {"measurement": "percent degradation", "setting": "[3]; 4 h, 10 ppm", "value": "−0.4024", "unit": "%"}, {"measurement": "percent degradation", "setting": "[3]; 4 h, 15 ppm", "value": 0.1356, "unit": "%"}, {"measurement": "percent degradation", "setting": "[3]; 4 h, 20 ppm", "value": "−0.4094", "unit": "%"}, {"measurement": "percent degradation", "setting": "[3]; 4 h, 25 ppm", "value": 0.4552, "unit": "%"}, {"measurement": "percent degradation", "setting": "[3]; 4 h, 30 ppm", "value": "−0.3121", "unit": "%"}, {"measurement": "percent degradation", "setting": "[3]; 1 day, 10 ppm", "value": 0.4024, "unit": "%"}, {"measurement": "percent degradation", "setting": "[3]; 1 day, 15 ppm", "value": "−0.4070", "unit": "%"}, {"measurement": "percent degradation", "setting": "[3]; 1 day, 20 ppm", "value": 0.1023, "unit": "%"}, {"measurement": "percent degradation", "setting": "[3]; 1 day, 25 ppm", "value": 1.442, "unit": "%"}, {"measurement": "percent degradation", "setting": "[3]; 1 day, 30 ppm", "value": "−0.2496", "unit": "%"}, {"measurement": "percent degradation", "setting": "[3]; 3 days, 10 ppm", "value": 3.822, "unit": "%"}, {"measurement": "percent degradation", "setting": "[3]; 3 days, 15 ppm", "value": 2.442, "unit": "%"}, {"measurement": "percent degradation", "setting": "[3]; 3 days, 20 ppm", "value": 1.842, "unit": "%"}, {"measurement": "percent degradation", "setting": "[3]; 3 days, 25 ppm", "value": 2.656, "unit": "%"}, {"measurement": "percent degradation", "setting": "[3]; 3 days, 30 ppm", "value": 0.9363, "unit": "%"}, {"measurement": "percent degradation", "setting": "[3]; 7 days, 10 ppm", "value": 6.237, "unit": "%"}, {"measurement": "percent degradation", "setting": "[3]; 7 days, 15 ppm", "value": 3.799, "unit": "%"}, {"measurement": "percent degradation", "setting": "[3]; 7 days, 20 ppm", "value": 4.811, "unit": "%"}, {"measurement": "percent degradation", "setting": "[3]; 7 days, 25 ppm", "value": 4.780, "unit": "%"}, {"measurement": "percent degradation", "setting": "[3]; 7 days, 30 ppm", "value": 3.246, "unit": "%"}, {"measurement": "percent degradation", "setting": "[3]; 10 days, 10 ppm", "value": 5.432, "unit": "%"}, {"measurement": "percent degradation", "setting": "[3]; 10 days, 15 ppm", "value": 3.664, "unit": "%"}, {"measurement": "percent degradation", "setting": "[3]; 10 days, 20 ppm", "value": 3.480, "unit": "%"}, {"measurement": "percent degradation", "setting": "[3]; 10 days, 25 ppm", "value": 3.414, "unit": "%"}, {"measurement": "percent degradation", "setting": "[3]; 10 days, 30 ppm", "value": 2.871, "unit": "%"}, {"measurement": "percent degradation", "setting": "[3]; 28 days, 10 ppm", "value": 12.47, "unit": "%"}, {"measurement": "percent degradation", "setting": "[3]; 28 days, 15 ppm", "value": 9.633, "unit": "%"}, {"measurement": "percent degradation", "setting": "[3]; 28 days, 20 ppm", "value": 7.881, "unit": "%"}, {"measurement": "percent degradation", "setting": "[3]; 28 days, 25 ppm", "value": 6.525, "unit": "%"}, {"measurement": "percent degradation", "setting": "[3]; 28 days, 30 ppm", "value": 5.056, "unit": "%"}, {"measurement": "Bound % (Oasis ® HLB, 30 mg, 1 ml sorbent)", "setting": "[2]", "value": 100, "unit": "%"}]}]}
